Tests used:
[1] = Intrinsic clearance in human liver microsomes; format: ADME; settings: read-out: CLH
[2] = Octanol-water partition co-efficient, log D of the compound by shake flask method; format: physicochemical
[3] = target: T1, Solute carrier family 22 member 12 (Homo sapiens, UniProt Q96S37); assay: Inhibition of URAT1 (unknown origin)
T1 sequence (Q96S37 whole entry): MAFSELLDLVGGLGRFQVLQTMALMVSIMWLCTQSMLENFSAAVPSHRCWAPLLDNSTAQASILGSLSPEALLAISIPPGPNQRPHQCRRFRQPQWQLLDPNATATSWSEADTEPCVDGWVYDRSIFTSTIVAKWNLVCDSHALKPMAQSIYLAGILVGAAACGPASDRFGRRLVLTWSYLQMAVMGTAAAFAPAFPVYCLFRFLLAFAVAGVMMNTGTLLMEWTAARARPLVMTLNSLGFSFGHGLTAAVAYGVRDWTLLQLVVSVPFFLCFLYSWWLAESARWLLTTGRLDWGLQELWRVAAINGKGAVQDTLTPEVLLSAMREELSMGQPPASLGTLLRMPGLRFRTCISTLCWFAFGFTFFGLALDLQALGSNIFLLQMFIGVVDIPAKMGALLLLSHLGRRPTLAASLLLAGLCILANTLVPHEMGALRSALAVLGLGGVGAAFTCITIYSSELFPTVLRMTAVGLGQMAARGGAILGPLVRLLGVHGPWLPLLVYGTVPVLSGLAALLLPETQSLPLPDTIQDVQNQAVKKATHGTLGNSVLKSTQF

SMILES: N#Cc1cc(Oc2ccc(S(=O)(=O)Nc3ccc(F)cn3)cc2C#N)ccc1Cl
- microsomal CLint [1]: 134 µL/min/mg
- logD [2]: 2

SMILES: N#Cc1ccc(Oc2ccc(S(=O)(=O)Nc3ccc(F)cn3)cc2C#N)cc1F
- microsomal CLint [1]: < 8 µL/min/mg
- logD [2]: 1.4

SMILES: N#Cc1ccc(Oc2ccc(S(=O)(=O)Nc3ccc(F)cn3)cc2C#N)cc1
- microsomal CLint [1]: < 8 µL/min/mg

SMILES: CC(C)(Sc1ccncc1-c1ccc(C#N)c2ccccc12)C(=O)O
- IC50 [3]: 23 nM

SMILES: N#Cc1cccc(Oc2ccc(S(=O)(=O)Nc3ccc(F)cn3)cc2C#N)c1
- microsomal CLint [1]: 65 µL/min/mg
